Data: patent US12275726B2, “Aurora kinase inhibitors and use thereof” (WIGEN BIOMEDICINE TECHNOLOGY (SHANGHAI) CO., LTD., priority 2019, dated 2025)
Read-outs that look alike come from different tables or passages of the source.

What was measured:
Aurora-A kinase = molecular target: T1, Aurora-A kinase (Homo sapiens, UniProt O14965); assay: Caliper Mobility Shift assay for inhibitory activity against aurora kinase (Aurora-A); type: biochemical; conditions: FAM-labeled polypeptide substrate, 25° C.
T1 sequence (O14965 1-403): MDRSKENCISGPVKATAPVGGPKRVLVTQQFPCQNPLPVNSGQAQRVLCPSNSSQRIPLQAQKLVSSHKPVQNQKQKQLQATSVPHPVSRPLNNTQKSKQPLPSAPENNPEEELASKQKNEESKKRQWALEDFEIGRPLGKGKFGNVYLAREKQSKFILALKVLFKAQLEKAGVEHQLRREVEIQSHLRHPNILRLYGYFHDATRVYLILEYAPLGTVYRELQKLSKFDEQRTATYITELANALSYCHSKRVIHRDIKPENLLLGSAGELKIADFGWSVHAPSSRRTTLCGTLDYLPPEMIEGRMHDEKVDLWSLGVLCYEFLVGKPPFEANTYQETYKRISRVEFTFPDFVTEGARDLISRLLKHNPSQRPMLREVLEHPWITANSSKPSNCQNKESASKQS
Procedure: (§1) The compounds were each subjected to gradient dilution from 10 μM to obtain a total of 10 concentrations. After the enzyme and kinase reaction solution (20 mM HEPES, pH 7.5, 0.01% Triton X-100) were mixed, the gradiently diluted compound was added. The mixture was incubate at room temperature for 10 min to allow the compound and enzyme to bind well. Then, FAM-labeled polypeptide was added as a substrate to carry out a kinase reaction at 25° C., and after a certain time, a stop solution was added.

Aurora-B kinase = Aurora-B kinase (Homo sapiens, UniProt Q96GD4); assay: Caliper Mobility Shift assay for inhibitory activity against aurora kinase (Aurora-B); type: biochemical; conditions: FAM-labeled polypeptide substrate, 25° C.
Chain of Aurora-B kinase (Q96GD4 whole entry): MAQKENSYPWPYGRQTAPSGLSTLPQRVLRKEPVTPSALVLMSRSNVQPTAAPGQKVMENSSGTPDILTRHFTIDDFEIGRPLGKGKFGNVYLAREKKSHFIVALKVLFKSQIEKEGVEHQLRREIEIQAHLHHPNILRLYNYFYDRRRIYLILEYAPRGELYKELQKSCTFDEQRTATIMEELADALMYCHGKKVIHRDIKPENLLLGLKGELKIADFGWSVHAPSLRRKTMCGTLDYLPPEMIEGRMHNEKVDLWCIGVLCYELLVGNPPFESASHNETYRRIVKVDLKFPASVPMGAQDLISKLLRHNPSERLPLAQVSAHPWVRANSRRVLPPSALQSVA
Procedure: as §1

[1] = tested on: Human lung cancer H69 cells graft tumors; assay: Anti-tumor activity in nude mice bearing H69 graft tumors; type: in vivo; conditions: for in vivo anti-tumor activity compared with the positive control LY-3295668: 20 mg/kg bid*21, H69 graft tumors in nude mice, statement in words; for Anti-tumor effect: 20 mg/kg, bid*21, intragastric, suspension in 0.5% CMC-Na, NCI-H69 graft tumors in nude mice
Procedure: 1×10^7 H69 cells were injected into the right dorsal side of each nude mouse, and the animals were randomly grouped for administration after tumors grew to 150 mm^3. […] On Tuesday and Thursday each week, tumor volumes and body weight of mice were measured, and the nude mice were sacrificed on day 21 of administration.

[2] = tested on: human small cell lung cancer H69 cells; assay: Anti-proliferation activity against H69 cells (ATP content, 72 h); type: cell-based
Procedure: Tumor cells (human small cell lung cancer H69 cells) in logarithmic growth phase were seeded into a 384-well culture plate at 4×10^3 cells per well, 50 μL of medium was added to each well, and the mixtures were cultured overnight in a 37° C./5% CO2 incubator. After the cells adhered to the wall, the test compounds and the positive control drug at proper concentrations were each added, and five samples with different concentrations were prepared. A blank group was taken as a negative control group, and the resulting mixtures were cultured in an incubator for 72 h. 50 μL of CTL plus was then added to each well, and the number of cells was evaluated by measuring ATP content in the cells.

Row | SMILES | IC50 (Aurora-A kinase) [nM] | IC50 (Aurora-B kinase) [nM] | in vivo anti-tumor activity compared with the positive control LY-3295668 [1] | Anti-tumor effect [1] [% shrinking] | IC50 ([2]; Homo sapiens, NCI-H69, 72 h) [nM] | IC50 [2] [nM]
1 | O=C(O)C1(Cc2nc(Nc3nccs3)ccc2F)CCN(Cc2cccc(Cl)c2F)C(C(F)(F)F)C1 (centres unmarked) [Compound 1, 1-(3-chloro-2-fluorobenzyl)-4-((3-fluoro-6-(thiazol-2-ylamino)pyridin-2-yl)methyl)-2-(trifluoromethyl)piperidine-4-carboxylic acid] | 0.53 | 148 | significantly increased in vivo anti-tumor activity | 29 | 11 | 
2 | CCC1CC(Cc2nc(Nc3nccs3)ccc2F)(C(=O)O)CCN1Cc1cccc(Cl)c1F (centres unmarked) [Compound 5, 1-(3-chloro-2-fluorobenzyl)-2-ethyl-4-((3-fluoro-6-(thiazol-2-ylamino)pyridin-2-yl)methyl)piperidine-4-carboxylic acid] | 0.82 | 140 |  | 9 |  | 33
3 | COCC1CC(Cc2nc(Nc3nccs3)ccc2F)(C(=O)O)CCN1Cc1cccc(Cl)c1F (centres unmarked) [Compound 6, 1-(3-chloro-2-fluorobenzyl)-4-((3-fluoro-6-(thiazol-2-ylamino)pyridin-2-yl)methyl)-2-(methoxymethyl)piperidine-4-carboxylic acid] | 0.57 | 78 | significantly increased in vivo anti-tumor activity | 30 | 49 | 
4 | CCOCC1CC(Cc2nc(Nc3nccs3)ccc2F)(C(=O)O)CCN1Cc1cccc(Cl)c1F (centres unmarked) [Compound 7, 1-(3-chloro-2-fluorobenzyl)-2-(ethoxymethyl)-4-((3-fluoro-6-(thiazol-2-ylamino)pyridin-2-yl)methyl)piperidine-4-carboxylic acid] | 0.74 | 286 |  |  | 52 | 
5 | O=C(O)C1(Cc2nc(Nc3nccs3)ccc2F)CCN(Cc2cccc(Cl)c2F)C(CF)C1 (centres unmarked) [Compound 11, 1-(3-chloro-2-fluorobenzyl)-4-((3-fluoro-6-(thiazol-2-ylamino)pyridin-2-yl)methyl)-2-(fluoromethyl)piperidine-4-carboxylic acid] | 2.4 | 128 |  |  | 19 | 
6 | Cc1cnc(Nc2ccc(F)c(CC3(C(=O)O)CCN(Cc4cccc(Cl)c4F)C(C(F)(F)F)C3)n2)s1 (centres unmarked) [Compound 13, 1-(3-chloro-2-fluorobenzyl)-4-((3-fluoro-6-(5-methylthiazol-2-ylamino)pyridin-2-yl)methyl)-2-(trifluoromethyl)piperidine-4-carboxylic acid] | 0.64 | 113 |  |  | 590 | 
7 | Cc1cc(Nc2ccc(F)c(CC3(C(=O)O)CCN(Cc4cccc(Cl)c4F)C(C(F)(F)F)C3)n2)n[nH]1 (centres unmarked) [Compound 15, 1-(3-chloro-2-fluorobenzyl)-4-((3-fluoro-6-((5-methyl-1H-pyrazol-3-yl)amino)pyridin-2-yl)methyl)-2-(trifluoromethyl)piperidine-4-carboxylic acid] | 0.62 | 1490 |  |  | 770 | 
8 | CCC1CC(Cc2nc(Nc3cc(C)[nH]n3)ccc2F)(C(=O)O)CCN1Cc1cccc(Cl)c1F (centres unmarked) [Compound 19, 1-(3-chloro-2-fluorobenzyl)-2-ethyl-4-((3-fluoro-6-((5-methyl-1H-pyrazol-3-yl)amino)pyridin-2-yl)methyl)piperidine-4-carboxylic acid] | 3.1 | > 3000 |  |  | 219 | 
9 | COCC1CC(Cc2nc(Nc3ncc(C)s3)ccc2F)(C(=O)O)CCN1Cc1cccc(Cl)c1F (centres unmarked) [Compound 23, 1-(3-chloro-2-fluorobenzyl)-4-((3-fluoro-6-(5-methylthiazol-2-ylamino)pyridin-2-yl)methyl)-2-(methoxymethyl)piperidine-4-carboxylic acid] | 0.57 | 2470 |  |  | 58 | 
10 | COCC1CC(Cc2nc(Nc3cc(C)[nH]n3)ccc2F)(C(=O)O)CCN1Cc1cccc(Cl)c1F (centres unmarked) [Compound 25, 1-(3-chloro-2-fluorobenzyl)-4-((3-fluoro-6-((5-methyl-1H-pyrazol-3-yl)amino)pyridin-2-yl)methyl)-2-(methoxymethyl)piperidine-4-carboxylic acid] | 0.78 | > 3000 |  |  | 98 | 
11 | CCC1CC(Cc2nc(Nc3nccs3)ccc2F)(C(=O)O)CCN1Cc1cccc(Cl)c1F (centres unmarked) [Compound 29, 1-(3-chloro-2-fluorobenzyl)-2-ethyl-4-((3-fluoro-6-(thiazol-2-ylamino)pyridin-2-yl)methyl)piperidine-4-carboxylic acid] | 1.3 | 90 |  |  | 24 | 
